From PMC4336144, “Screening the Medicines for Malaria Venture "Malaria Box" against the Plasmodium falciparum Aminopeptidases, M1, M17 and M18” (PLoS ONE, 2015)
pKi: −log10 of the molar value.

How the values were obtained:
PfA-M1 [1] = biological target: T1, PfA-M1 (Plasmodium falciparum, UniProt O96935); test: Secondary screening against individual enzyme; type: biochemical; conditions: 100 μM compound; for PfA-M1 activity retained in the presence of compound: n = 3, of total enzyme activity
T1 construct: made in house; host or cells: Escherichia coli
T1 sequence (O96935 195-1085 limits assumed): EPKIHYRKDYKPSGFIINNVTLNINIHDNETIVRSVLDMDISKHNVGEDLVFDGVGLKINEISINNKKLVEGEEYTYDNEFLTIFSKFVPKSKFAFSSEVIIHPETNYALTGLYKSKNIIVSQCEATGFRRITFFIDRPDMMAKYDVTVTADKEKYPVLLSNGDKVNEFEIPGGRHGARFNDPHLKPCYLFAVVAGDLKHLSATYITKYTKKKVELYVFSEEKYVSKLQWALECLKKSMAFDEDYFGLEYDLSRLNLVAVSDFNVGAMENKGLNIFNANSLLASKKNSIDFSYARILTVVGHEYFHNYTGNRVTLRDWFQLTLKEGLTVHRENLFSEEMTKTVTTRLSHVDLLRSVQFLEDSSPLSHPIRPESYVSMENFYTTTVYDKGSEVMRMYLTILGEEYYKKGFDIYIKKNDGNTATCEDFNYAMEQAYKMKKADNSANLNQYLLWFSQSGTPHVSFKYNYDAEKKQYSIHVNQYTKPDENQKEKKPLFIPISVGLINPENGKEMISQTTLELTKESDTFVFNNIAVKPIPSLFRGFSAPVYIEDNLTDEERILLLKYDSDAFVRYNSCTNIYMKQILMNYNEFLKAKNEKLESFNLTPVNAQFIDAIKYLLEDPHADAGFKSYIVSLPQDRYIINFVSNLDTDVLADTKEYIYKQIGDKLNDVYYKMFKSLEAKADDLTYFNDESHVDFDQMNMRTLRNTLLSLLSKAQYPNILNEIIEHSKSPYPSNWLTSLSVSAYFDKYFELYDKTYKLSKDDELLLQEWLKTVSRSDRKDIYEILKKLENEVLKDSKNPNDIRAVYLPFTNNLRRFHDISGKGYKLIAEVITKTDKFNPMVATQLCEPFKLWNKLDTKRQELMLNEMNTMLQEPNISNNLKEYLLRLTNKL
Description: (§1) Aminopeptidase activity of each individual enzyme in the presence of a single MMV compound (100 μM) was determined using Leu-Mec for both PfA-M1 (15 nM) and PfA-M17 (80 nM) or Glu-pNA for PfM18AAP (125 nM). Reactions were carried out in 96-well microtitre plates (200 μl total volume) in 50 mM Tris-HCl pH 8.0, 2 mM CoCl2 at 37°C. Following a 10 min incubation (enzyme and compound) at 37°C, reactions were initiated by addition of enzyme specific substrate. Progress curves were monitored using a FLUOstar Omega multimode reader (BMG LabTech) for 1.5 h at 37°C. As activity references, individual enzyme 'no compound' controls and 'positive inhibitor' controls were included in each 96 well plate assay. We applied a cut-off of < 10% activity in the presence of 100 μM compound for selection to the next phase. Compounds that were selected to proceed were then used in further assays to obtain n = 3.

PfA-M17 [2] = biological target: T2, PfA-M17 (Plasmodium falciparum, UniProt Q8IL11); test: Secondary screening against individual enzyme; type: biochemical; conditions: 100 μM compound
T2 construct: made in house; host or cells: Escherichia coli
T2 sequence (Q8IL11 84-605 limits assumed): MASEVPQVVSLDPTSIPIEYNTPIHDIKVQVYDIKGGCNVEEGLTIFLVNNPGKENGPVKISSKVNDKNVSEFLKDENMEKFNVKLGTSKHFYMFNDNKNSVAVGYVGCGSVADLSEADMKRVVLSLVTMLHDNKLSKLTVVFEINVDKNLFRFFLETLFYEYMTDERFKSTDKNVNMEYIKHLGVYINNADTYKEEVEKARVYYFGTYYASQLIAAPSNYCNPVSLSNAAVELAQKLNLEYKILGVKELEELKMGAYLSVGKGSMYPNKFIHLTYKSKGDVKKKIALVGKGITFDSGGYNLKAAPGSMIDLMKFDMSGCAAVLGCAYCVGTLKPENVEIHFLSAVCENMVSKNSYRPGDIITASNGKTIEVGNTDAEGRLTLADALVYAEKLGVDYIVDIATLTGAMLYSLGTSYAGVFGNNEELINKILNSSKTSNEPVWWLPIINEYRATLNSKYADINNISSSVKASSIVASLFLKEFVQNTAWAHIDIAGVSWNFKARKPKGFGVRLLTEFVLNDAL
Description: as §1

PfA-M1 [3] = biological target: T1, PfA-M1; test: Determination of Ki values (Dixon plots, H-Leu-NHMec); type: biochemical; conditions: for pKi / Ki PfA-M1: Dixon plot; for pKi: read-out: Ki PfA-M1
Description: (§2) MMV020750 was purchased from InterBioScreen (catalog number STOCK2S-51608) and MMV666023 was purchased from ChemBridge (catalog number 5566248). The MMV020750 derivatives 1, 2 and 3 were purchased from Ambinter (catalog numbers AMB425981, AMB2311364 and AMB8506251 respectively). 4-(4,5-Diphenyl-1H-imidazol-2-yl)benzoic acid (4) was purchased from TCI Chemicals, while 4-(4,5-diphenyl-1H-imidazol-2-yl)-N-hydroxybenzamide (5) was prepared from 4 as described (S1 Methods). Aminopeptidase activity of both PfA-M1 and PfA-M17 enzymes was determined by measuring the release of the fluorogenic leaving group, NHMec, from the fluorogenic peptide L-Leucine-7-amido-4-methylcoumarin hydrochloride (H-Leu-NHMec) (Sigma L2145). The assay protocol devised by Stack CM, et al, (J. Biol Chem, 2007) was modified and used, with the reactions were carried out at 37°C and monitored using a spectrofluorometer (BMG FLUOstar) with excitation at 355 nm and emission at 460 nm. Each enzyme was pre-incubated in 50 mM Tris pH 8.0, 2 mM CoCl2; 5% DMSO with each inhibitor for 10 min prior to the addition of substrate. Inhibitor concentration was assayed between 0 and 500 μM final for each compound, and repeated over a narrowed range if necessary. The fluorescence signal was monitored until a final steady state velocity, V, was obtained. The K i values were then evaluated using Dixon plots of 1/V versus inhibitor concentration while the substrate concentration was maintained lower than that of the Km of the enzyme.

PfA-M17 [4] = biological target: T2, PfA-M17; test: as above; type: biochemical; conditions: for loss in inhibitory activity against PfA-M17: compared to parent MMV020750
Description: as §2
This was a particular problem with the PfA-M17 enzyme assays where we noted that at higher concentrations of 4, a decrease in fluorescence was observed. We hypothesise that this is a result of PfA-M17 binding to the compound and quenching the intrinsic fluorescence. […] We therefore chose to analyse a reduced concentration range for 4.

PfA-M1 and/or PfA-M17 = test: Multiplex primary screen, fluorogenic substrate Leu-Mec; type: biochemical, Plasmodium falciparum; conditions: 100 μM compound, multiplex assay
Description: A multiplex enzyme assay was developed to complete the primary screen of 400 compounds that were provided to us by MMV and SCYNEXIS. Combined PfMAP (15 nM PfA-M1; 80 nM PfA-M17 and 125 nM PfM18AAP) aminopeptidase activity in the presence of a single MMV compound (100 μM solubilized in 100% dimethyl sulfoxide, DMSO, final DMSO concentration in assay = 10%) was determined by simultaneous measurement of the release of the fluorogenic leaving group, -NHMec, from L-Leucine-7-amido-4-methylcoumarin-HCl (Leu-Mec) (Sigma) as well as the hydrolysis of p-nitroanilide from the chromogenic substrate, L-Glutamic acid p-nitroanilide (Glu-pNA) (Sigma). The fluorogenic substrate records the combined activity of PfA-M1 and PfA-M17 while the p-nitroanilide substrate is specific for PfM18AAP. Reactions were carried out in 96-well microtitre plates (200 μL total volume) in 50 mM Tris-HCl pH 8.0, 2 mM CoCl2 at 37°C. Following a 10 min incubation (multi-enzyme and single compound) at 37°C, reactions were initiated by addition of both fluorogenic and chromagenic substrates. Progress curves were monitored using a FLUOstar Omega multimode reader (BMG LabTech) for 1.5 h at 37°C. As activity references, individual enzyme and multiple enzyme 'no compound' controls and 'positive inhibitor' controls (with 10% DMSO) were included in each 96 well plate assay.

| pKi (PfA-M1 [3]) | pKi (PfA-M17 [4]; Dixon plot) | Structure (SMILES) | Activity (PfA-M1 and/or PfA-M17) (PfA-M1 and/or PfA-M17) | also measured |
| --- | --- | --- | --- | --- |
| – | – | CC(C)C[C@H](NC(=O)[C@@H](O)[C@H](N)Cc1ccccc1)C(=O)O [Bestatin, reference compound] | – | PfA-M1 activity, single dose secondary screen (PfA-M1 [1]; n = 1): no neutral aminopeptidase activity is detectable; PfA-M1 activity retained in the presence of compound (PfA-M1 [1]): no neutral aminopeptidase activity is detectable; PfA-M17 activity, single dose secondary screen (PfA-M17 [2]; n = 1): no neutral aminopeptidase activity is detectable; PfA-M17 activity retained in the presence of compound (PfA-M17 [2]; n = 3): no neutral aminopeptidase activity is detectable |
| < 3.30 | < 3.30 | CN(CCO)c1ccc(-c2nc(-c3ccccc3)c(-c3ccccc3)[nH]2)cc1 [Compound 1] | – | – |
| < 3.30 | < 3.30 | COc1cc(-c2nc(-c3ccccc3)c(-c3ccccc3)[nH]2)ccc1OCC(N)=O [Compound 2] | – | – |
| 3.92 | 3.56 | COC(=O)c1ccc(-c2nc(-c3ccccc3)c(-c3ccccc3)[nH]2)cc1 [Compound 3] | – | Ki PfA-M1 (PfA-M1 [3]): micromolar range; loss in inhibitory activity against PfA-M17 (PfA-M17 [4]): > 10 fold |
| 5.28 | 4.40 to 4.70 | O=C(O)c1ccc(-c2nc(-c3ccccc3)c(-c3ccccc3)[nH]2)cc1 [Compound 4, 4-(4,5-Diphenyl-1H-imidazol-2-yl)benzoic acid] | – | increase in potency against PfA-M1 (PfA-M1 [3]; compared to MMV020750): > 10 fold; Ki PfA-M17 (PfA-M17 [4]; Dixon plot): micromolar range |
| 4.47 | 3.73 | O=C(NO)c1ccc(-c2nc(-c3ccccc3)c(-c3ccccc3)[nH]2)cc1 [Compound 5, 4-(4,5-diphenyl-1H-imidazol-2-yl)-N-hydroxybenzamide] | – | Ki PfA-M1 (PfA-M1 [3]): micromolar range; loss in inhibitory activity against PfA-M17 (PfA-M17 [4]): > 10 fold |
| – | – | Cc1ccnc(NC(c2cccc(OCc3ccccc3)c2)c2ccc3cccnc3c2O)c1 (centres unmarked) [MMV000720] | R | – |
| – | – | Oc1ccc(-c2nc(-c3ccc4oc5ccc(-c6[nH]c(-c7ccc(O)cc7)nc6-c6ccccc6)cc5c4c3)c(-c3ccccc3)[nH]2)cc1 [MMV000753] | R | – |
| – | – | OCCNc1nc(Nc2ccc(Cl)c(Cl)c2)nc2ccccc12 [MMV001041] | R | – |
| – | – | CN(C)c1ccc(C=Cc2nc(=O)c3ccccc3o2)cc1 [MMV006309] | R | – |
| – | – | Cc1cccc(N2C(=O)C3C(C2=O)C2(c4ccccc4)C(=O)C3(c3ccccc3)C(c3ccc4c(c3)OCO4)=C2c2ccc3c(c2)OCO3)c1 (centres unmarked) [MMV007228] | R | reduction of PfA-M1 activity (PfA-M1 [1]; n = 3): 89% |
| – | – | COc1cc(-c2nc(-c3ccc(Sc4ccccc4)cc3)c(-c3ccccc3)[nH]2)cc(OC)c1O [MMV007273] | R | PfA-M1 activity retained in the presence of compound (PfA-M1 [1]): ~75% |
| – | – | COc1ccc2c(c1)OC(O)(C(F)(F)C(F)(F)F)CC2=O (centres unmarked) [MMV007839] | R | – |
